From US8580918B2, “Peptidic GLP-2 agonists” (Ferring B.V., priority 2009, dated 2013)
Where a SMILES comes first, the peptide text is derived from it. [ ]: non-standard residue; d: D form. dPhe(3-Cl) = N[C@H](Cc1cccc(Cl)c1)C(=O)O; dPhe(2-Cl) = N[C@H](Cc1ccccc1Cl)C(=O)O; d2Thi = N[C@H](Cc1cccs1)C(=O)O; d3Thi = N[C@H](Cc1ccsc1)C(=O)O; Nle = CCCC[C@H](N)C(=O)O

test: Pharmacokinetics in rats after intravenous bolus injection (systemic clearance); type: in vivo; conditions: rat, plasma, 0.2 mg FB/kg, adult male Sprague-Dawley rats, i.v. bolus, dose 0.20 mg FB/kg, read-out: CL (ml/kg/min) Average
Procedure, shortened: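 Systemic clearance from noncompartmental analysis as dose per kg over trapezoidal AUC extrapolated to infinity, mean and SD across animals. Plasma (K2EDTA) levels by LC/MS/MS after single IV jugular-vein bolus, 0.1-1.0 mg/kg, in 3-4 cannulated male Sprague-Dawley rats.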

Row | SMILES | clearance [mL/kg/min]
1 | CCCC[C@H](NC(=O)[C@H](CCC(=O)O)NC(=O)[C@H](CC(=O)O)NC(=O)[C@H](CO)NC(=O)[C@H](Cc1ccccc1)NC(=O)[C@H](CO)NC(=O)CNC(=O)[C@H](CC(=O)O)NC(=O)CNC(=O)[C@@H](N)Cc1c[nH]cn1)C(=O)N[C@H](Cc1ccc(O)cc1)C(=O)N[C@H](C(=O)N[C@H](C(=O)N[C@@H](CC(C)C)C(=O)N[C@@H](CC(=O)O)C(=O)N[C@@H](CC(N)=O)C(=O)N[C@@H](CC(C)C)C(=O)N[C@@H](C)C(=O)N[C@@H](C)C(=O)N[C@@H](CCCNC(=N)N)C(=O)N[C@@H](CC(=O)O)C(=O)N[C@@H](Cc1ccccc1)C(=O)N[C@H](C(=O)N[C@@H](CC(N)=O)C(=O)N[C@@H](Cc1c[nH]c2ccccc12)C(=O)N[C@@H](CC(C)C)C(=O)N[C@H](C(=O)N[C@@H](CCC(N)=O)C(=O)N[C@H](C(=O)N[C@@H](CCCCN)C(N)=O)[C@@H](C)O)[C@@H](C)CC)[C@@H](C)CC)[C@@H](C)CC)[C@@H](C)O [Compound 39, [Gly2,Nle10,D-Tyr11] hGLP-2 (1-30)-NH2] (H-HGDGSFSDE[Nle][dY]TILDNLAARDFINWLIQTK-NH2) | 4.9
2 | CCCC[C@H](NC(=O)[C@H](CCC(=O)O)NC(=O)[C@H](CC(=O)O)NC(=O)[C@H](CO)NC(=O)[C@H](Cc1ccccc1)NC(=O)[C@H](CO)NC(=O)CNC(=O)[C@H](CC(=O)O)NC(=O)CNC(=O)[C@@H](N)Cc1c[nH]cn1)C(=O)N[C@H](Cc1ccccc1Cl)C(=O)N[C@H](C(=O)N[C@H](C(=O)N[C@@H](CC(C)C)C(=O)N[C@@H](CC(=O)O)C(=O)N[C@@H](CC(N)=O)C(=O)N[C@@H](CC(C)C)C(=O)N[C@@H](C)C(=O)N[C@@H](C)C(=O)N[C@@H](CCCNC(=N)N)C(=O)N[C@@H](CC(=O)O)C(=O)N[C@@H](Cc1ccccc1)C(=O)N[C@H](C(=O)N[C@@H](CC(N)=O)C(=O)N[C@@H](Cc1c[nH]c2ccccc12)C(=O)N[C@@H](CC(C)C)C(=O)N[C@H](C(=O)N[C@@H](CCC(N)=O)C(=O)N[C@H](C(=O)N[C@@H](CCCCN)C(N)=O)[C@@H](C)O)[C@@H](C)CC)[C@@H](C)CC)[C@@H](C)CC)[C@@H](C)O [Compound 40, [Gly2,Nle10,D-2-Cpa11] hGLP-2 (1-30)-NH2] (H-HGDGSFSDE[Nle][dPhe(2-Cl)]TILDNLAARDFINWLIQTK-NH2) | 0.73
3 | CCCC[C@H](NC(=O)[C@H](CCC(=O)O)NC(=O)[C@H](CC(=O)O)NC(=O)[C@H](CO)NC(=O)[C@H](Cc1ccccc1)NC(=O)[C@H](CO)NC(=O)CNC(=O)[C@H](CC(=O)O)NC(=O)CNC(=O)[C@@H](N)Cc1c[nH]cn1)C(=O)N[C@H](Cc1cccc(Cl)c1)C(=O)N[C@H](C(=O)N[C@H](C(=O)N[C@@H](CC(C)C)C(=O)N[C@@H](CC(=O)O)C(=O)N[C@@H](CC(N)=O)C(=O)N[C@@H](CC(C)C)C(=O)N[C@@H](C)C(=O)N[C@@H](C)C(=O)N[C@@H](CCCNC(=N)N)C(=O)N[C@@H](CC(=O)O)C(=O)N[C@@H](Cc1ccccc1)C(=O)N[C@H](C(=O)N[C@@H](CC(N)=O)C(=O)N[C@@H](Cc1c[nH]c2ccccc12)C(=O)N[C@@H](CC(C)C)C(=O)N[C@H](C(=O)N[C@@H](CCC(N)=O)C(=O)N[C@H](C(=O)N[C@@H](CCCCN)C(N)=O)[C@@H](C)O)[C@@H](C)CC)[C@@H](C)CC)[C@@H](C)CC)[C@@H](C)O [Compound 44, [Gly2,Nle10,D-3-Cpa11] hGLP-2 (1-30)-NH2] (H-HGDGSFSDE[Nle][dPhe(3-Cl)]TILDNLAARDFINWLIQTK-NH2) | 0.32

Now from value to molecule:

Row | clearance [mL/kg/min] | SMILES
4 | 1.1 | CCCC[C@H](NC(=O)[C@H](CCC(=O)O)NC(=O)[C@H](CC(=O)O)NC(=O)[C@H](CO)NC(=O)[C@H](Cc1ccccc1)NC(=O)[C@H](CO)NC(=O)CNC(=O)[C@H](CC(=O)O)NC(=O)CNC(=O)[C@@H](N)Cc1c[nH]cn1)C(=O)N[C@H](Cc1cccs1)C(=O)N[C@H](C(=O)N[C@H](C(=O)N[C@@H](CC(C)C)C(=O)N[C@@H](CC(=O)O)C(=O)N[C@@H](CC(N)=O)C(=O)N[C@@H](CC(C)C)C(=O)N[C@@H](C)C(=O)N[C@@H](C)C(=O)N[C@@H](CCCNC(=N)N)C(=O)N[C@@H](CC(=O)O)C(=O)N[C@@H](Cc1ccccc1)C(=O)N[C@H](C(=O)N[C@@H](CC(N)=O)C(=O)N[C@@H](Cc1c[nH]c2ccccc12)C(=O)N[C@@H](CC(C)C)C(=O)N[C@H](C(=O)N[C@@H](CCC(N)=O)C(=O)N[C@H](C(=O)N[C@@H](CCCCN)C(N)=O)[C@@H](C)O)[C@@H](C)CC)[C@@H](C)CC)[C@@H](C)CC)[C@@H](C)O [Compound 32, [Gly2,Nle10,D-Thi11] hGLP-2 (1-30)-NH2] (H-HGDGSFSDE[Nle][d2Thi]TILDNLAARDFINWLIQTK-NH2)
5 | 1.3 | CCCC[C@H](NC(=O)[C@H](CCC(=O)O)NC(=O)[C@H](CC(=O)O)NC(=O)[C@H](CO)NC(=O)[C@H](Cc1ccccc1)NC(=O)[C@H](CO)NC(=O)CNC(=O)[C@H](CC(=O)O)NC(=O)CNC(=O)[C@@H](N)Cc1c[nH]cn1)C(=O)N[C@H](Cc1ccsc1)C(=O)N[C@H](C(=O)N[C@H](C(=O)N[C@@H](CC(C)C)C(=O)N[C@@H](CC(=O)O)C(=O)N[C@@H](CC(N)=O)C(=O)N[C@@H](CC(C)C)C(=O)N[C@@H](C)C(=O)N[C@@H](C)C(=O)N[C@@H](CCCNC(=N)N)C(=O)N[C@@H](CC(=O)O)C(=O)N[C@@H](Cc1ccccc1)C(=O)N[C@H](C(=O)N[C@@H](CC(N)=O)C(=O)N[C@@H](Cc1c[nH]c2ccccc12)C(=O)N[C@@H](CC(C)C)C(=O)N[C@H](C(=O)N[C@@H](CCC(N)=O)C(=O)N[C@H](C(=O)N[C@@H](CCCCN)C(N)=O)[C@@H](C)O)[C@@H](C)CC)[C@@H](C)CC)[C@@H](C)CC)[C@@H](C)O [Compound 42, [Gly2,Nle10,D-3-Thi11] hGLP-2 (1-30)-NH2] (H-HGDGSFSDE[Nle][d3Thi]TILDNLAARDFINWLIQTK-NH2)
6 | 0.33 | CCCC[C@H](NC(=O)[C@H](CCC(=O)O)NC(=O)[C@H](CC(=O)O)NC(=O)[C@H](CO)NC(=O)[C@H](Cc1ccccc1)NC(=O)[C@H](CO)NC(=O)CNC(=O)[C@H](CC(=O)O)NC(=O)CNC(=O)[C@@H](N)Cc1c[nH]cn1)C(=O)N[C@H](Cc1cccs1)C(=O)N[C@H](C(=O)N[C@H](C(=O)N[C@@H](CC(C)C)C(=O)N[C@@H](CC(=O)O)C(=O)N[C@@H](CC(C)C)C(=O)N[C@@H](CC(C)C)C(=O)N[C@@H](C)C(=O)N[C@@H](C)C(=O)N[C@@H](CCCNC(=N)N)C(=O)N[C@@H](CC(=O)O)C(=O)N[C@@H](Cc1ccccc1)C(=O)N[C@H](C(=O)N[C@@H](CC(N)=O)C(=O)N[C@@H](Cc1c[nH]c2ccccc12)C(=O)N[C@@H](CC(C)C)C(=O)N[C@H](C(=O)N[C@@H](CCC(N)=O)C(=O)N[C@H](C(=O)N[C@@H](CCCCN)C(N)=O)[C@@H](C)O)[C@@H](C)CC)[C@@H](C)CC)[C@@H](C)CC)[C@@H](C)O [Compound 45, [Gly2,Nle10,D-Thi11,Leu16] hGLP-2 (1-30)-NH2] (H-HGDGSFSDE[Nle][d2Thi]TILDLLAARDFINWLIQTK-NH2)
